Drawing on the METLIN SMRT retention time set (Domingo-Almenara et al. 2019), this text covers RP-LC retention time for 32 compounds.

This series in a line: gradient 5% acetonitrile 3 min, to 50% in 2 min, to 85% in 15 min, held 3 min, 100 µL/min. As to conditions: column: Zorbax Extend-C18 2.1 x 50 mm; eluents: water / acetonitrile, 0.1% formic acid. In a few lines:
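Retention times come from adduct peaks that were picked computationally and then checked by hand. The standards, pure and pooled in mixtures of ~100 molecules, were run on a Zorbax Extend-C18 column (2.1 × 50 mm, 1.8 μm) at 100 μL/min with water and acetonitrile, each with 0.1% formic acid. Detection was by quadrupole time-of-flight mass spectrometry in positive and negative ionization mode, with a dead volume of 40 μL and a dwell volume of 900 μL.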
On to `CCN(CC)CCCC(C)Nc1nc(/C=C/c2cc(OC)c(OC)cc2Cl)nc2cc(Cl)ccc12` (configuration not stated), for which the RP-LC retention time was 595 s. The compound `O=C(CCCc1ccccc1)N1CCN(c2nc(CN3CCCCC3)cs2)CC1` came in with an RP-LC retention time of 692 s. `Cc1ccc(-c2csc(NC(=O)c3sc(-c4ccccc4)nc3C)n2)cc1C` registered an RP-LC retention time of 1390 s. For `COc1cc(OC)cc(C(=O)N(C)CCc2noc(C(=O)NCc3ccccc3)n2)c1` the value was 809 s; for `Cc1nnc(NC(=O)C2CCN(C(=O)c3ccc(F)cc3)CC2)s1`, 624 s. To `CCn1c(=O)sc2cc(S(=O)(=O)N3CCC(C(=O)Nc4ccc(F)c(Cl)c4)CC3)ccc21` belongs 1010 s; to `O=C(NCc1ccc(F)cc1)Nc1cccc(-c2ccc(N3CCOCC3)nn2)c1`, 674 s.

Compound `CCc1nc2c(c(=O)n1CC(=O)NCc1ccccc1)CN(Cc1ccccc1)CC2` returned an RP-LC retention time of 629 s.

In turn, `Cc1nn(-c2ccc(N3CCCCC3)nn2)c(C)c1CCC(=O)N1CCN(c2ncccn2)CC1` showed an RP-LC retention time of 656 s. Compound `O=C(CC1CCN(C(=O)c2ccccc2)CC1)N1CCN(c2ccccn2)CC1` yielded an RP-LC retention time of 582 s.

The compound `C=CCNC(=O)C1CCCN(C(=O)Nc2ccc(NC(=O)Nc3ccc(C)cc3C)cc2)C1` (configuration not stated) displayed an RP-LC retention time of 760 s. With `Cc1noc(-c2cc(=O)n(CC(=O)NCc3ccc(Cl)cc3)c3ccccc23)n1`, the RP-LC retention time was determined as 888 s. To `CCN1CCCn2cc(S(=O)(=O)Nc3cc(C)ccc3C)cc2C1=O` belongs 756 s. To `CCC(=O)N1CCc2c(C(=O)N3CCN(c4cccc(OC)c4)CC3)cccc21` belongs 819 s; to `O=C(CC1CCCN(c2cn[nH]c(=O)c2)C1)N1CCSCC1` (configuration not stated), 617 s. As for `Cc1cc(=O)n(CC(=O)Nc2cc(F)cc(F)c2)c(N2CCCC2)n1`, the RP-LC retention time was 670 s. `O=C(c1ccc(CS(=O)c2cccc(Cl)c2)o1)N1CCN(c2ccccn2)CC1` (configuration not stated): the RP-LC retention time amounted to 602 s.

Compound `CCn1c(=O)c(-c2noc(C(=O)N3CCN(c4ccccn4)CC3)n2)nn(-c2ccccc2)c1=O` registered an RP-LC retention time of 691 s. `CCOC(=O)c1c(C)c(CCC(=O)NCCN2CCCCCC2)n(C)c1C` showed an RP-LC retention time of 645 s. To `Cc1ccnc(OCC(=O)NC(C)C)n1` belongs 586 s; to `COC(=O)c1cc(OCC(=O)Nc2ccc3c(c2)OCO3)c2cc(C)ccc2n1`, 821 s; to `O=C(Cn1c(=O)n(C2CCCC2)c2ncccc21)Nc1ccc(Br)cc1`, 998 s. For `O=C(NCc1ccco1)c1ccc2c(c1)N(C(=O)c1ccc(F)cc1)CC2`, the RP-LC retention time is 823 s. For `CCOc1ccccc1NC(=O)N1CC(n2ccnc2)C1` the value was 594 s; for `COCCCNC(=O)CC1Sc2ncccc2N(C)C1=O` (configuration not stated), 600 s; for `CN1CCCC1c1nc(C2CN(C(=O)CCc3nc4ccccc4s3)C2)no1` (configuration not stated), 607 s. In turn, `O=C(COc1ccc(Cl)cc1)NCC#CCN1CCCC1` displayed an RP-LC retention time of 544 s. To `O=C(CN1C(=O)CCCc2cc(S(=O)(=O)N3CCCCC3)ccc21)NC1CCCCC1` belongs 880 s; to `Cc1nn(-c2ccccc2)c(C)c1S(=O)(=O)N1CCC(C(=O)Nc2cc(F)ccc2F)CC1`, 1000 s; to `O=C(NC1CC1)c1nnc(-c2ccc(S(=O)(=O)N3CCCCC3)cc2)o1`, 804 s. `CC(=O)Nc1ccc(Cc2nc(-c3ccc4c(c3)oc(=O)n4C)no2)cc1` gave an RP-LC retention time of 729 s. The compound `CCOC(=O)C1CCN(C(=O)c2ccc3ccnc(N4CCN(c5ccc(F)cc5)CC4)c3c2)CC1` yielded an RP-LC retention time of 814 s.
